In the experiment the target is T1, GPR40 (Homo sapiens, UniProt O14842).
T1 construct: expressed in transfected cells
Put plainly: Calcium mobilization in GPR40-transfected cells. Type of experiment: cell-based. To be noted: calcium mobilization in GPR40-transfed cells. Here is the method:
The compounds were tested for their ability to mobilize calcium in GPR40-transfed cells as described by Christiansen et al. (J. Med. Chem. 2011, 54, 6691-6703).

T1 sequence (O14842 whole entry): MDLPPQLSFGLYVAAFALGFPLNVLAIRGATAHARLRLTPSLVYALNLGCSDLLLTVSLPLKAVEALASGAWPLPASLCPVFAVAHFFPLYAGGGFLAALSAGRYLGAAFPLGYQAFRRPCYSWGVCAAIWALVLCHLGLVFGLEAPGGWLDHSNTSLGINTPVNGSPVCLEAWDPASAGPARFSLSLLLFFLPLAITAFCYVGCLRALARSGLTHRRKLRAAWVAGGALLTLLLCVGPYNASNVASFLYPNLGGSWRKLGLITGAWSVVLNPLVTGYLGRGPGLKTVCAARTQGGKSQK

Turning to `O=C(O)CCc1ccc(C#Cc2ccccc2)c(F)c1` [Example 11, 3-(3-Fluoro-4-(phenylethynyl)phenyl)propanoic acid], the “GPR40 activity (pEC50)” value is on record as 6.84.
The value for `C/C=C(\C)C#Cc1ccc(CCC(=O)O)c(F)c1` [Example 4, (E)-3-(2-Fluoro-4-(3-methylpent-3-en-1-yn-1-yl)phenyl)propanoic acid] was 7.43.
The value for `O=C(O)CCc1ccc(C#Cc2cc(F)ccc2C(F)F)cc1F` [Example 14, 3-(4-((2-(Difluoromethyl)-5-fluorophenyl)ethynyl)-2-fluorophenyl)propanoic acid] was 7.74; that for `O=C(O)CCc1ccc(C#Cc2cc(Cl)cc(Cl)c2)cc1F` [Example 13, 3-(4-((3,5-Dichlorophenyl)ethynyl)-2-fluorophenyl)propanoic acid] was 7.42; that for `O=C(O)CCc1ccc(C#Cc2ccccc2)cc1F` [Example 1, 3-(2-Fluoro-4-(phenylethynyl)phenyl)propanoic acid] was 7.48.
Under `CS(=O)(=O)Cc1cccc(C#Cc2ccc(CCC(=O)O)c(F)c2)c1` [Example 9, 3-(2-Fluoro-4-((3-((methylsulfonyl)methyl)phenyl)ethynyl)phenyl)propanoic acid] stands 5.71.
Take `C/C(C#Cc1ccc(CCC(=O)O)c(F)c1)=C/CO` [Example 12, (Z)-3-(2-Fluoro-4-(5-hydroxy-3-methylpent-3-en-1-yn-1-yl)phenyl)propanoic acid]: the “GPR40 activity (pEC50)” value worked out at 6.37.
With `C/C=C(/C)C#Cc1ccc(CCC(=O)O)c(F)c1` [Example 3, (Z)-3-(2-Fluoro-4-(3-methylpent-3-en-1-yn-1-yl)phenyl)propanoic acid], the “GPR40 activity (pEC50)” value is listed as 7.69.
For `O=C(O)CCc1c(F)cc(C#Cc2ccccc2)cc1F` [Example 10, 3-(2,6-Difluoro-4-(phenylethynyl)phenyl)propanoic acid], the “GPR40 activity (pEC50)” value came to 6.85.
`C=C(C)C#Cc1ccc(CCC(=O)O)c(F)c1` [Example 2, 3-(2-Fluoro-4-(3-methylbut-3-en-1-yn-1-yl)phenyl)propanoic acid]: the “GPR40 activity (pEC50)” value was 7.09.
Regarding `CS(=O)(=O)Cc1ccccc1C#Cc1ccc(CCC(=O)O)c(F)c1` [Example 8, 3-(2-Fluoro-4-((2-((methylsulfonyl)methyl)phenyl)ethynyl)phenyl)propanoic acid], the “GPR40 activity (pEC50)” value was determined as 5.84.
As to `Cc1ccccc1C#Cc1ccc(CCC(=O)O)c(F)c1` [Example 5, 3-(2-Fluoro-4-(o-tolylethynyl)phenyl)propanoic acid], the “GPR40 activity (pEC50)” value was found to be 7.48.
The value for `Cc1ccc(C#N)cc1C#Cc1ccc(CCC(=O)O)c(F)c1` [Example 7, 3-(4-((5-Cyano-2-methylphenyl)ethynyl)-2-fluorophenyl)propanoic acid] was 7.77.

(Values after US9499467B2, “Ortho-fluoro substituted compounds for the treatment of metabolic diseases” (CALDAN THERAPEUTICS LIMITED, priority 2011, dated 2016).)
